Article PMC3862803, “Human Breast Tumor Cells Are More Resistant to Cardiac Glycoside Toxicity Than Non-Tumorigenic Breast Cells” (PLoS ONE, 2013)
Where two headings read alike, the source gives them in different places.

Key:
MDA-MB-231 cells [1] = assay: TUNEL apoptosis assay; type: cell-based, human; details: 6 hours
Experimental: (§1) As a positive control, MCF10A and MCF10CA1 cells were treated with DNaseI for 15 minutes prior to assay. Cells were fixed and permeabilized prior to Terminal deoxynucleotidyl transferase dUTP nick end labeling (TUNEL) staining of DNA fragmentation using the ApopTag Fluorescein In Situ Apoptosis Detection Kit according to manufacturer’s instructions (Millipore, Billerica, MA). Slides were covered with Vectashield Mounting Medium with DAPI (Vector Laboratories, Burlingame, CA) and sealed with a glass coverslip. Images were detected and analyzed using Zeiss LSM 5 Pascal microscope and software.

MCF10CA1 cells [2] = assay: TUNEL apoptosis assay; type: cell-based, human; details: 6 hours
Experimental: as §1

MCF10A cells [3] = assay: TUNEL apoptosis assay; type: cell-based, human; details: 6 hours
Experimental: as §1

MCF10CA1 cells [4] = assay: PrestoBlue viability assay; type: cell-based; details: Homo sapiens; MCF10CA1, 24 hours; mean ± SE, n>3; read-out: Reduced cell viability (IC50)
Experimental: (§2) To determine cell growth curves, cells were trypsinized, counted using a Scepter Cell Counter (Millipore, Billerica, MA), plated in a 96-well plate at a density of 1,000, 3,000, 5,000, or 10,000 cells per well, and allowed to attach overnight. On day 2, growth curves were determined using the PrestoBlue Viability Assay (Life Technologies, Grand Island, NY) to ensure cell densities used for viability and proliferation assays were in linear growth phase.

184A1 cells = assay: PrestoBlue viability assay; type: cell-based; details: Homo sapiens; 184A1, 24 hours; mean ± SE, n>3; read-out: Reduced cell viability (IC50)
Experimental: as §2

184D cells = assay: PrestoBlue viability assay; type: cell-based; details: Homo sapiens, 24 hours, mean ± SE, n>3, read-out: Reduced cell viability (IC50)
Experimental: as §2

MCF7 cells [5] = assay: TUNEL apoptosis assay; type: cell-based, human; details: 6 hours
MCF10A cells [6] = assay: PrestoBlue viability assay; type: cell-based, human; details: for IC50: Homo sapiens, MCF-10A, 24 hours, mean ± SE, n>3, read-out: Reduced cell viability (IC50)
Experimental: as §2

MDA-MB-231 cells [7] = assay: PrestoBlue viability assay; type: cell-based, human; details: for IC50: Homo sapiens, MDA-MB-231, 24 h, read-out: Reduced cell viability (IC50)
Na,K-ATPase = biological target: T1, Na,K-ATPase (Homo sapiens, UniProt P05023); assay: biochemical; type: biochemical; details: for IC50: mean ± SE, n>3, read-out: IC50 for CTS inhibition of ATPase activity
T1 construct: The Na,K-ATPase activity in total membranes isolated from non-tumorous 184D, 184A, and MCF10A (10A) cells; endogenous in cells; host or cells: total membranes of MCF10A, 184D, 184A1, MCF10CA1, MCF7 and MDA-MB-231 human breast cells
Experimental: Total membranes (TM) were prepared from cells as previously described [37] and resuspended in cold homogenizing buffer (10 mM Tris-HCl, 2 mM EDTA, 250 mM sucrose, pH 7.4) containing Complete-Mini Protease Inhibitor Cocktail Tablets (Roche, Indianapolis, IN).
The ATPase activity assay of isolated TM from cells was performed for 30 min at 37°C as previously described [38].

MCF10A cells [8] = assay: BrdU cell proliferation assay; type: cell-based, human; details: 500 nM ouabain for 2 hours, P<0.001
MCF7 cells [9] = assay: BrdU cell proliferation assay; type: cell-based, human; details: 500 nM ouabain for 24 hours
Experimental: BrdU label was added to cells in fresh culture medium with or without ouabain for two hours according to manufacturer’s recommendations. BrdU incorporation into the DNA of proliferating cells was detected using an anti-BrdU primary antibody and Peroxidase Goat Anti-mouse secondary antibody. Fluorescence was quantified using a FLUOStar Omega microplate reader (BMG Labtech).

MCF10CA1 cells [10] = assay: BrdU cell proliferation assay; type: cell-based, human
MDA-MB-231 cells [11] = assay: BrdU cell proliferation assay; type: cell-based, human
p-ERK1/2 = assay: Western blot of cell lysates for p-ERK1/2; type: cell-based, human; details: for p-ERK levels in lysates (western blot): 50 nM or 500 nM ouabain for 24 hours; for p-ERK1/2 levels in lysates (western blot): 500 nM ouabain
Experimental: Total cell lysate preparations were made by incubating cell pellets in lysis buffer (150 mM NaCl, 50 mM Tris, 1% CHAPS, pH 7.4) for 30 minutes at 4°C. Lysates were cleared at 15,000 x g for 10 minutes and the soluble protein supernatant was collected for analysis. Protein concentrations were determined using the Coomassie Protein Assay Kit (Pierce, Rockford, IL).
Protein samples were subject to western blot analysis according to previously described procedures [39]. Transferred proteins were blocked using either 5% dried milk, 0.1% Tween-20 in phosphate-buffered saline or 5% bovine serum albumin, 0.1% Tween-20 in Tris-buffered saline. PVDF membranes were sequentially probed with primary antibodies and horseradish peroxidase-conjugated secondary antibodies according to manufacturer’s recommendations. Luminata Forte Western HRP Substrate (Millipore, Billerica, MA) was used for peroxidase detection and the resulting signal intensity was quantified on a BioRad Chemidoc XRS using Quantity One Version 4.6.2 software. When appropriate, signal intensity from anti-actin antibody was used as a protein loading control.

prostate cancer = details: digoxin use, large prospective cohort study; cited from earlier work
[12] = 24 hour ouabain at high concentrations (500 nM)

C[C@]12CC[C@H](O)C[C@H]1CC[C@@H]1[C@@H]2CC[C@]2(C)[C@@H](c3ccc(=O)oc3)CC[C@]12O [Bufalin, bufalin]
Cells exhibiting DNA fragmentation (TUNEL), a marker for apoptosis (MDA-MB-231 cells [1]; 50 nM bufalin): < 5%
Cells exhibiting DNA fragmentation (TUNEL), a marker for apoptosis (MCF10CA1 cells [2]; 50 nM bufalin): < 5%
Cells exhibiting DNA fragmentation (TUNEL), a marker for apoptosis (MCF10A cells [3]; 50 nM bufalin): Over 90%
IC50 (MCF10CA1 cells [4]): 0.635 ± 0.172 µM
IC50 (184A1 cells): 0.319 ± 0.0061 µM
IC50 (184D cells): 0.329 ± 0.0112 µM
Cells exhibiting DNA fragmentation (TUNEL), a marker for apoptosis (MCF7 cells [5]; 50 nM bufalin): < 5%
IC50 (MCF10A cells [6]): 0.465 ± 0.0259 µM
IC50 (MDA-MB-231 cells [7]): 0.9364 ± 0.0049 µM

C[C@H]1O[C@@H](O[C@H]2[C@@H](O)C[C@H](O[C@H]3[C@@H](O)C[C@H](O[C@H]4CC[C@@]5(C)[C@H](CC[C@@H]6[C@@H]5CC[C@]5(C)[C@@H](C7=CC(=O)OC7)CC[C@]65O)C4)O[C@@H]3C)O[C@@H]2C)C[C@H](O)[C@@H]1O [Digitoxin, digitoxin]
IC50 (MCF10CA1 cells [4]): 3.68 ± 0.0895 µM
IC50 (184A1 cells): 1.44 ± 0.0293 µM
IC50 (184D cells): 1.27 ± 0.0654 µM
IC50 (Na,K-ATPase; total membranes of 184A1 cells): 1.83 ± 0.0887 µM
IC50 (Na,K-ATPase; total membranes of 184D cells): 2.07 ± 0.307 µM
IC50 (Na,K-ATPase; total membranes of MCF7 cells): 1.16 ± 0.0427 µM
IC50 (Na,K-ATPase; total membranes of MCF10A cells): 1.35 ± 0.0852 µM
IC50 (Na,K-ATPase; total membranes of MCF10CA1 cells): 1.48 ± 0.0738 µM
IC50 (Na,K-ATPase; total membranes of MDAMB231 cells): 1.18 ± 0.155 µM
IC50 (MCF10A cells [6]): 1.57 ± 0.191 µM
IC50 (MDA-MB-231 cells [7]): 3.68 ± 0.15 µM

C[C@@H]1O[C@@H](O[C@H]2C[C@@H](O)[C@]3(CO)[C@H]4[C@H](O)C[C@]5(C)[C@@H](C6=CC(=O)OC6)CC[C@]5(O)[C@@H]4CC[C@]3(O)C2)[C@H](O)[C@H](O)[C@H]1O [Ouabain, ouabain]
Cells exhibiting DNA fragmentation (TUNEL), a marker for apoptosis (MDA-MB-231 cells [1]; 500 nM ouabain): < 5%
Cells exhibiting DNA fragmentation (TUNEL), a marker for apoptosis (MCF10CA1 cells [2]; 500 nM ouabain): < 5%
Cells exhibiting DNA fragmentation (TUNEL), a marker for apoptosis (MCF10A cells [3]; 500 nM ouabain): Over 90%
IC50 (MCF10CA1 cells [4]): 2.67 ± 0.574 µM
IC50 (184A1 cells): 1.49 ± 0.0453 µM
IC50 (184D cells): 1.35 ± 0.155 µM
Proliferation (BrdU incorporation) (MCF10A cells [8]): decrease in proliferation
Proliferation (BrdU incorporation) (MCF7 cells [9]): no change to proliferation
Cells exhibiting DNA fragmentation (TUNEL), a marker for apoptosis (MCF7 cells [5]; 500 nM ouabain): < 5%
Proliferation (BrdU incorporation) (MCF10CA1 cells [10]; [12]): slight decrease in proliferation
Proliferation (BrdU incorporation) (MCF10CA1 cells [10]; short-term (2 hours) ouabain): not affected
Proliferation (BrdU incorporation) (MDA-MB-231 cells [11]; [12]): slight decrease in proliferation
Proliferation (BrdU incorporation) (MDA-MB-231 cells [11]; short-term (2 hours) ouabain): not affected
ATPase inhibition at varied serum level (Na,K-ATPase; MCF10A isolated membranes, 0-10% serum, 500 nM ouabain, p > 0.05): No significant difference in ATPase inhibition
p-ERK levels in lysates (western blot) (p-ERK1/2; A2780CP (cisplatin resistant) cells): increased levels of p-ERK
p-ERK levels in lysates (western blot) (p-ERK1/2; A2780 cells): increased levels of p-ERK
p-ERK1/2 levels in lysates (western blot) (p-ERK1/2; MCF10A, 24 hours (any treatment condition)): did not contain detectable levels of activated p-ERK1/2
p-ERK1/2 levels in lysates (western blot) (p-ERK1/2; MCF10CA1, 24 hours): elevated p-ERK1/2 levels
p-ERK1/2 levels in lysates (western blot) (p-ERK1/2; MDA-MB-231, 24 hours): elevated p-ERK1/2 levels
Cell viability over treatment duration (MCF10A cells [6]; 500 nM ouabain, after 2 days (0 to 48 hours)): nearly all of the MCF10A cells have died
IC50 (MCF10A cells [6]): 2.17 ± 0.192 µM
Cell viability at varied serum concentration (MCF10A cells [6]; reduced serum (0-10% serum), 500 nM ouabain for 24 hours): increased ouabain sensitivity
Cell viability at varied serum concentration (MDA-MB-231 cells [7]; MDA-MB-231, 0-10% serum, 500 nM ouabain for 24 hours): not affected

C[C@H]1O[C@@H](O[C@H]2[C@@H](O)C[C@H](O[C@H]3[C@@H](O)C[C@H](O[C@H]4CC[C@@]5(C)[C@H](CC[C@@H]6[C@@H]5C[C@@H](O)[C@]5(C)[C@@H](C7=CC(=O)OC7)CC[C@]65O)C4)O[C@@H]3C)O[C@@H]2C)C[C@H](O)[C@@H]1O [digoxin]
Prevention of prostate cancer (prostate cancer): ≤ 25%
